US9533983B2, “Antiplatelet agent” (Mitsubishi Tanabe Pharma Corporation, priority 2009, dated 2017)

Key:
Type in all cases: cell-based
Conditions in all cases: Cavia porcellus, guinea pig PRP
[1] = system: Collagen-Induced Platelet Aggregation; assay: Platelet aggregation inhibitory activity: collagen-induced platelet aggregation in platelet rich plasma
Outline: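 Guinea-pig citrated platelet-rich plasma incubated with compound 1 min at 37° C, stirred 1 min, then aggregation induced with collagen and measured by light transmittance, platelet-poor plasma set as 100%. Aggregation rates at each concentration gave the IC50.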

[2] = system: Ristocetin-Induced Platelet Aggregation; assay: Platelet aggregation inhibitory activity: ristocetin-induced platelet aggregation in platelet rich plasma
Outline: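 Guinea pig citrated platelet-rich plasma preincubated with compound at 37 °C for 1 min, stirred 1 min, then aggregation induced with ristocetin. Light transmittance measured with PPP set as 100%. IC50 derived from aggregation rates across compound concentrations.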

[3] = system: ADP-Induced Platelet Aggregation; assay: Platelet aggregation inhibitory activity: ADP-induced platelet aggregation in platelet rich plasma
Experimental: A blood of a guinea pig was sampled by using a 1/10 volume of a 3.8% sodium citrate as a platelet aggregation inhibitor, and a platelet rich plasma (PRP) was separated by centrifuging the blood sample at 1100 rpm for 10 min. After fractionating the PRP in the upper layer, the lower layer was centrifuged at 3000 rpm for 10 min to fractionate the platelet poor plasma (PPP). To 100 μL of PRP, a 1 μL solution of each compound was added, and after still standing at 37° C. for 1 min, the mixture was stirred at 37° C. for 1 min by a stirrer. Then, 11 μL of collagen, ristocetin, or ADP was added thereto to induce the platelet aggregation. The platelet aggregation ability was measured by using the mCM hematolaser 313M (L-M-S Inc.). Based on the assumption that a light transmittance of PPP corresponds to a 100% coagulation value, an aggregation rate at each concentration of the compound was determined, then, an IC50 value was calculated therefrom.
[Platelet Aggregation Inhibitory Activities: ADP-Induced Platelet Aggregation]

SMILES | IC50 [1] | IC50 [2] | IC50 [3]
COc1ccc(-n2c(-c3ccc(Cl)cn3)nc3cc(C(F)(F)F)ccc32)cn1 [Example 36, 2-(5-chloropyridin-2-yl)-1-(6-methoxypyridin-3-yl)-5-(trifluoromethyl)-1H-benzimidazole] | 49 nM | 180 nM | > 10 µM
COc1ccc(-n2c(-c3ccccn3)nc3cc(OC(F)(F)F)ccc32)cn1 [Example 40, 1-(6-methoxypyridin-3-yl)-2-pyridin-2-yl-5-(trifluoromethoxy)-1H-benzimidazole] | 330 nM | 170 nM | > 10 µM
COc1ccc(-n2c(-c3cn(C)nn3)nc3cc(OC(F)(F)F)ccc32)nn1 [Example 167, 1-(6-methoxypyridazin-3-yl)-2-(1-methyl-1H-1,2,3-triazol-4-yl)-5-(trifluoromethoxy)-1H-benzimidazole] | 157 nM | 135 nM | > 10 µM
COc1ccc(-n2c(-c3ccccn3)nc3cc(C(F)(F)F)ccc32)nn1 [Example 1, 1-(6-methoxypyridazin-3-yl)-2-pyridin-2-yl-5-(trifluoromethyl)-1H-benzimidazole] | 33 nM | 100 nM | > 10 µM
COc1ccc(-n2c(-c3ccc(F)cn3)nc3cc(OC(F)F)cnc32)cn1 [Example 178] | 94 nM | 47 nM | > 10 µM
COc1ccc(-c2c(-c3ccccn3)nn3cc(C(F)(F)F)cnc23)cn1 [Example 180, 3-(6-methoxypyridin-3-yl)-2-pyridin-2-yl-6-(trifluoromethyl)pyrazolo[1,5-a]pyrimidine] | 55 nM | 14 nM | > 10 µM
COc1cnc(-n2c(-c3cn(C)cn3)nc3cc(C(F)(F)F)cnc32)cn1 [Example 169, 3-(5-methoxypyrazine-2-yl)-2-(1-methyl-1H-imidazol-4-yl)-6-(trifluoromethyl)-3H-imidazo[4,5-b]pyridine] | 123 nM | 148 nM | > 10 µM
COc1ccc(-n2c(-c3ccccn3)nc3cc(C(F)(F)F)cnc32)cn1 [Example 13, 3-(6-methoxypyridin-3-yl)-2-pyridin-2-yl-6-(trifluoromethyl)-3H-imidazo[4,5-b]pyridine] | 42 nM | 41 nM | > 10 µM
COc1ccc(-c2c(-c3ccccn3)nc3cc(C(F)(F)F)cnn23)cn1 [Example 179, 3-(6-methoxypyridin-3-yl)-2-pyridin-2-yl-7-(trifluoromethyl)imidazo[1,2-b]pyridazine] | 75 nM | 34 nM | > 10 µM

The remaining compounds from weak to strong by IC50 [1], led by results:

IC50 [1] | IC50 [2] | IC50 [3] | SMILES
33 nM | 27 nM | > 10 µM | COc1ccc(-c2c(-c3ccc(F)cn3)nc3cc(C(F)(F)F)cnn23)cn1 [Example 181, 2-(5-fluoropyridin-2-yl)-3-(6-methoxypyridin-3-yl)-7-(trifluoromethyl)imidazo[1,2-b]pyridazine]
32 nM | 32 nM | > 10 µM | COc1ccc(-n2c(-c3ccccn3)nc3cc(OC(F)(F)F)ccc32)nn1 [Example 3, 1-(6-methoxypyridazin-3-yl)-2-pyridin-2-yl-5-(trifluoromethoxy)-1H-benzimidazole]
26 nM | 13 nM | > 10 µM | COc1ccc(-n2c(-c3ccccn3)nc3cc(OC(F)(F)F)cnc32)cn1 [Example 147, 3-(6-methoxypyridin-3-yl)-2-pyridin-2-yl-6-(trifluoromethoxy)-3H-imidazo[4,5-b]pyridine]
25 nM | 60 nM | > 10 µM | COc1ccc(-n2c(-c3ccc(C#N)cn3)nc3cc(C(F)(F)F)ccc32)nn1 [Example 7, 6-[1-(6-methoxypyridazin-3-yl)-5-(trifluoromethyl)-1H-benzimidazole-2-yl]nicotinonitrile]
21 nM | 24 nM | > 10 µM | COc1ccc(-n2c(-c3ccc(F)cn3)nc3cc(C(F)(F)F)cnc32)cn1 [Example 4, 2-(5-fluoropyridin-2-yl)-3-(6-methoxypyridin-3-yl)-6-(trifluoromethyl)-3H-imidazo[4,5-b]pyridine]
21 nM | 11 nM | > 10 µM | COc1ccc(-n2c(-c3ccc(F)cn3)nc3cc(OC(F)(F)F)cnc32)cn1 [Example 177, 2-(5-fluoropyridin-2-yl)-3-(6-methoxypyridin-3-yl)-6-(trifluoromethoxy)-3H-imidazo[4,5-b]pyridine]
17 nM | 27 nM | > 10 µM | COc1ccc(-n2c(-c3ccc(F)cn3)nc3cc(C(F)(F)F)ccc32)nn1 [Example 62, 2-(5-fluoropyridin-2-yl)-1-(6-methoxypyridazin-3-yl)-5-(trifluoromethyl)-1H-benzimidazole]
16 nM | 9 nM | > 10 µM | COc1ccc(-c2c3ncc(C(F)(F)F)cc3nn2-c2ccccn2)cn1 [Example 186, 3-(6-methoxypyridin-3-yl)-2-pyridin-2-yl-6-(trifluoromethyl)-2H-pyrazolo[4,3-b]pyridine]
